According to ChEMBL document CHEMBL1140580, “Synthesis and characterization of trans-4-(4-chlorophenyl)pyrrolidine-3-carboxamides of piperazinecyclohexanes as ligands for the melanocortin-4 receptor” (Bioorg Med Chem Lett, 2007):

Tests used:
Melanocortin receptor 4 [1] = target: T1, Melanocortin receptor 4 (Homo sapiens, UniProt P32245); test: Displacement of […]NDPMSH from human MC4R expressed in HEK293 cells; format: cell-based
Melanocortin receptor 4 [2] = target: T1, Melanocortin receptor 4; test: Agonist activity at MC4R assessed as stimulation of cAMP release relative to alphaMSH; format: functional
Melanocortin receptor 4 [3] = target: T1, Melanocortin receptor 4; test: Antagonist activity at MC4R assessed as inhibition of alpha-MSH-stimulated cAMP release; format: functional
Melanocortin receptor 4 [4] = target: T1, Melanocortin receptor 4; test: Agonist activity at MC4R assessed as stimulation of cAMP release; format: functional
[5] = target: Melanocyte-stimulating hormone receptor (Homo sapiens, UniProt Q01726); test: Binding affinity to MC1R
Chain of Melanocyte-stimulating hormone receptor (Q01726 whole entry): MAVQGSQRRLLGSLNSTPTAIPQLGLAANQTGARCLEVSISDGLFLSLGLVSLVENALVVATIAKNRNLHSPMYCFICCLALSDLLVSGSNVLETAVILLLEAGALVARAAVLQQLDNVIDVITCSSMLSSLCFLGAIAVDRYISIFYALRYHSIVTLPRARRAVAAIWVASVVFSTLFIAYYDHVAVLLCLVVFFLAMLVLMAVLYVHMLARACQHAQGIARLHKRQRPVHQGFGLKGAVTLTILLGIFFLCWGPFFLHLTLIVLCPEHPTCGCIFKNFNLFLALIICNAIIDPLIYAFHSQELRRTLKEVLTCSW

Melanocortin receptor 3 = Melanocortin receptor 3 (Homo sapiens, UniProt P41968); test: Binding affinity to MC3R
Chain of Melanocortin receptor 3 (P41968 whole entry): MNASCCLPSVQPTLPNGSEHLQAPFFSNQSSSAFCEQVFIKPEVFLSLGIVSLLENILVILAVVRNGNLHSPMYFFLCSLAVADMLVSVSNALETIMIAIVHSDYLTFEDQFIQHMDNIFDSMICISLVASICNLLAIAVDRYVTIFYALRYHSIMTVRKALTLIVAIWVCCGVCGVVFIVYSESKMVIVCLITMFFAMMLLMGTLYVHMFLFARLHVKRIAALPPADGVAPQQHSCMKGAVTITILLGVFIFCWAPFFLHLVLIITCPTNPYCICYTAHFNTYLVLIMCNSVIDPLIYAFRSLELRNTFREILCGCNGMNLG

Melanocortin receptor 5 = Melanocortin receptor 5 (Homo sapiens, UniProt P33032); test: Binding affinity to MC5R
Chain of Melanocortin receptor 5 (P33032 whole entry, looked up): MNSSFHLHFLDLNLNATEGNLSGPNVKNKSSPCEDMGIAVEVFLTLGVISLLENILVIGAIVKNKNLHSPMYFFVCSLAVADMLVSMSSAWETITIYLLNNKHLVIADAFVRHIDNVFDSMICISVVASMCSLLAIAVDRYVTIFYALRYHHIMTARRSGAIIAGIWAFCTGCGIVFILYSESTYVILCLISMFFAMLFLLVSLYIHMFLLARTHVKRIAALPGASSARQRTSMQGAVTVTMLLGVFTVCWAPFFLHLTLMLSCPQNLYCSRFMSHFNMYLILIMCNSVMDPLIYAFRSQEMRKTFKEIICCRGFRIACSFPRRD

Melanocortin receptor 4 [6] = target: Melanocortin receptor 4 (Mus musculus, UniProt P56450); test: Binding affinity to mouse MC4R
Chain of Melanocortin receptor 4 (Mus musculus, UniProt P56450) (P56450 whole entry): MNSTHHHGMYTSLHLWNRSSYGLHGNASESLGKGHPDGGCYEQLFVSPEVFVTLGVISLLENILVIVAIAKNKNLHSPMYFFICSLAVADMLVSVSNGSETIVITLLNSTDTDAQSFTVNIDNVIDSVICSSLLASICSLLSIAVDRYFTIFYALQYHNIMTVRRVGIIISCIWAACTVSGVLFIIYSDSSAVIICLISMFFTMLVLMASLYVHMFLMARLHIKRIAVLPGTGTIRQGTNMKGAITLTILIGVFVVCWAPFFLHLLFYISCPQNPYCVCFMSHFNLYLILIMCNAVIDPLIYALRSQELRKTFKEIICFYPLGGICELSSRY

T1 sequence (P32245 whole entry): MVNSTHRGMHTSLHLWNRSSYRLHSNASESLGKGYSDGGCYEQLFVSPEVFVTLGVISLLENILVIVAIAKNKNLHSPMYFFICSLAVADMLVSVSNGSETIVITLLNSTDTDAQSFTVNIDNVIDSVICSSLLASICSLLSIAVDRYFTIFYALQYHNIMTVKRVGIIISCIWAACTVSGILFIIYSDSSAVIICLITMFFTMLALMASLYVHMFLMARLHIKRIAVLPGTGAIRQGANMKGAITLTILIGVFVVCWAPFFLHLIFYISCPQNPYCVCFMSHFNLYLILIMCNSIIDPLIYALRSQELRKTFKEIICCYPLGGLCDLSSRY

Row | Ki (Melanocortin receptor 4 [1]) | Intrinsic activity (Melanocortin receptor 4 [2]) | IC50 (Melanocortin receptor 4 [3]) | EC50 (Melanocortin receptor 4 [4]) | Ki [5] | Ki (Melanocortin receptor 3) | Ki (Melanocortin receptor 5) | Ki (Melanocortin receptor 4 [6]) | SMILES
1 | 5.5 nM | 16% | 130 nM | 1500 nM |  |  |  |  | O=C([C@H]1CN(C2CCCCC2)C[C@@H]1c1ccc(Cl)cc1)N1CCN(C2(CNCc3ccccc3)CCCCC2)CC1
2 | 22 nM | 31% |  | 840 nM |  |  |  |  | CC(C)N1C[C@H](C(=O)N2CCN(C3(CNCc4ccsc4)CCCCC3)CC2)[C@@H](c2ccc(Cl)cc2)C1
3 | 29 nM | 70% |  | 1000 nM |  |  |  |  | O=C([C@H]1CN(C2CCOCC2)C[C@@H]1c1ccc(Cl)cc1)N1CCN(C2(CNCc3ccccc3)CCCCC2)CC1
4 | 0.5 nM | 10% | 48 nM | 170 nM | 3900 nM | 760 nM | 540 nM | 0.6 nM | COc1ccc(CNCC2(N3CCN(C(=O)[C@H]4CN(C(C)C)C[C@@H]4c4ccc(Cl)cc4)CC3)CCCCC2)cc1F
5 | 130 nM | 72% |  | 740 nM |  |  |  |  | CC(C)N1C[C@H](C(=O)N2CCN(C3(CNCc4nccs4)CCCCC3)CC2)[C@@H](c2ccc(Cl)cc2)C1
6 | 37 nM | 58% |  | 590 nM |  |  |  |  | CC(C)N1C[C@H](C(=O)N2CCN(C3(CNCc4cccs4)CCCCC3)CC2)[C@@H](c2ccc(Cl)cc2)C1
7 | 30 nM | 39% |  | 1200 nM |  |  |  |  | COc1cccc(CNCC2(N3CCN(C(=O)[C@H]4CN(C(C)C)C[C@@H]4c4ccc(Cl)cc4)CC3)CCCCC2)c1
8 | 27 nM | 27% | 410 nM | 780 nM |  |  |  |  | CC(C)N1C[C@H](C(=O)N2CCN(C3(CNCc4ccncc4)CCCCC3)CC2)[C@@H](c2ccc(Cl)cc2)C1
9 | 11 nM | 27% |  | 1300 nM |  |  |  |  | CC(C)N1C[C@H](C(=O)N2CCN(C3(CNCc4ccc(F)cc4F)CCCCC3)CC2)[C@@H](c2ccc(Cl)cc2)C1
10 | 1.8 nM | 26% |  | 1600 nM |  |  |  |  | COc1ccc(CNCC2(N3CCN(C(=O)[C@H]4CN(C(C)C)C[C@@H]4c4ccc(Cl)cc4)CC3)CCCCC2)c(F)c1
11 | 76 nM | 34% |  | 1200 nM |  |  |  |  | CC(C)N1C[C@H](C(=O)N2CCN(C3(CNCc4ccccn4)CCCCC3)CC2)[C@@H](c2ccc(Cl)cc2)C1
